Laboratory results from paper PMC2994747, “Molecular Characterization of c-Abl/c-Src Kinase Inhibitors Targeted against Murine Tumour Progenitor Cells that Express Stem Cell Markers” (PLoS ONE, 2010).
Where two headings read alike, the source gives them in different places.

Experiments:
A2C12 [1] = assay: MTS cell viability assay; assay type: cell-based, mouse
Description: (§1) Three human and eleven murine cancer cell lines were used. The human NSCLC cell line A549 (ACC 107) and the human colorectal carcinoma cell line CaCo2 (ACC 169) were obtained from Deutsche Sammlung von Mikroorganismen und Zellkulturen (DSMZ, Braunschweig, Germany). The human hepatocellular carcinoma cell line HepG2 (HB-8065) was obtained from American Type Culture Collection (Manassas, VA, USA). The 11 murine NSCLC cell lines were established as described recently. Cells were grown in monolayer cultures in DMEM containing 10% foetal calf serum, 4 mmol/l L-glutamine and 2% Penicillin/Streptomycin at 37°C in a humidified atmosphere of 95% air and 5% CO2.
(§2) Cell culture viability was monitored by CellTiter96® AQueous One Solution Cell Proliferation Assay (Promega GmbH, Mannheim, Germany). The cells were seeded in triplicates in 96-well microtitre plates and treated with the dual kinase inhibitors or vehicle (0.2% DMSO). After 24 h or 96 h of treatment the MTS tetrazolium reagent was added to the cells and incubated for 1 h. Absorbance at 490 nm was assayed with a Victor3 Wallac 1420 Multilabel counter (PerkinElmer, Waltham, MA, USA).

BetaD5 [2] = assay: MTS cell viability assay; assay type: cell-based, mouse
Description: as §1, §2

GammaA3 [3] = assay: MTS cell viability assay; assay type: cell-based, mouse
Description: as §1, §2

GammaD12 [4] = assay: MTS cell viability assay; assay type: cell-based, mouse; settings: MTS
Description: as §1, §2

A549 [5] = assay: MTS cell viability assay; assay type: cell-based, human
Description: as §1, §2

CaCo2 [6] = assay: MTS cell viability assay; assay type: cell-based, human
Description: as §1, §2

HepG2 [7] = assay: MTS cell viability assay; assay type: cell-based, human
Description: as §1, §2

A2C12 [8] = assay: Cell cycle analysis by flow cytometry; assay type: cell-based, mouse; settings: IC50 concentration, 96 h
Description: (§3) CycleTEST™ PLUS DNA Reagent Kit (Becton Dickinson GmbH, Heidelberg, Germany) for cell cycle analysis was used, according to the instructions of the manufacturer. Briefly, the cells were harvested with trypsin, washed with PBS, and resuspended in CycleTEST Buffer. The cells were centrifuged and resuspended in solution A. After incubation for 10 min at room temperature, solution B was added and incubated. After adding solution C, the samples were incubated at 4°C protected from light. The samples were stored on ice and protected from light until analysis by FACScan flow cytometer (Becton Dickinson GmbH, Heidelberg, Germany).

BetaD5 [9] = assay: Cell cycle analysis by flow cytometry; assay type: cell-based, mouse; settings: IC50 concentration, 96 h
Description: as §3

GammaA3 [10] = assay: Cell cycle analysis by flow cytometry; assay type: cell-based, mouse; settings: IC50 concentration; for Cells in G1 phase / Cells in G2 phase / Cells in S phase: 96 h
Description: as §3

GammaD12 [11] = assay: Cell cycle analysis by flow cytometry; assay type: cell-based, mouse; settings: IC50 concentration, 96 h
Description: as §3

A549 [12] = assay: Cell cycle analysis by flow cytometry; assay type: cell-based, human; settings: IC50 concentration, 96 h
Description: as §3

CaCo2 [13] = assay: Cell cycle analysis by flow cytometry; assay type: cell-based, human; settings: IC50 concentration, 96 h
Description: as §3

HepG2 [14] = assay: Cell cycle analysis by flow cytometry; assay type: cell-based, human; settings: IC50 concentration, 96 h
Description: as §3

[15] = 24 h, read-out: Calculated IC50 after single treatment for 24 h
[16] = 96 h, read-out: Calculated IC50 after daily treatment for 96 h
[17] = daily treatment 96 h, vs DMSO 0.2%

IC50 (A549 [5]; [15]) | IC50 (A549 [5]; [16]) | IC50 (CaCo2 [6]; [15]) | IC50 (CaCo2 [6]; [16]) | IC50 (HepG2 [7]; [15]) | IC50 (HepG2 [7]; [16]) | SMILES | IC50 (A2C12 [1]; [15]) | IC50 (A2C12 [1]; [16]) | IC50 (BetaD5 [2]; [15]) | IC50 (BetaD5 [2]; [16]) | IC50 (GammaA3 [3]; [15]) | IC50 (GammaA3 [3]; [16]) | IC50 (GammaD12 [4]; [15]) | IC50 (GammaD12 [4]; [16]) | Cells in G1 phase (A2C12 [8]) | Cells in G2 phase (A2C12 [8]) | Cells in S phase (A2C12 [8]) | Cells in G1 phase (BetaD5 [9]) | Cells in G2 phase (BetaD5 [9]) | Cells in S phase (BetaD5 [9]) | further results
69.5 ± 27.7 µM | 10.4 ± 0.4 µM | 58.2 ± 4.2 µM | 5.9 ± 0.1 µM | 58.5 ± 3 µM | 26.7 ± 4.8 µM | CSc1nc(NCc2ccccc2)c2cnn(CC(Cl)c3ccccc3)c2n1 (stereo not shown) [Si34] | 32.8 ± 4.8 µM | 8.3 ± 0.3 µM | 37 ± 2.3 µM | 9.6 ± 0.2 µM | 25.2 ± 3.1 µM | 10.7 ± 0.6 µM | 23.2 ± 2.5 µM | 8.8 ± 1.4 µM | 74.5% | 9.7% | 15.7% | 65.8% | 23.1% | 11.1% | Cells in G1 phase (GammaA3 [10]): 68.6%; Cells in G2 phase (GammaA3 [10]): 16.8%; Cells in S phase (GammaA3 [10]): 14.6%; Cells in G1 phase (GammaD12 [11]): 36.2%; Cells in G2 phase (GammaD12 [11]): 7.9%; Cells in S phase (GammaD12 [11]): 55.9%; Cells in G1 phase (A549 [12]): 67.3%; Cells in G2 phase (A549 [12]): 5.6%; Cells in S phase (A549 [12]): 27.1%; Cells in G1 phase (CaCo2 [13]): 52.9%; Cells in G2 phase (CaCo2 [13]): 10.5%; Cells in S phase (CaCo2 [13]): 36.7%; Cells in G1 phase (HepG2 [14]): 52%; Cells in G2 phase (HepG2 [14]): 13.2%; Cells in S phase (HepG2 [14]): 34.7%
21.5 ± 4.2 µM | 6.5 ± 0.2 µM | 65.6 ± 2.7 µM | 6.4 ± 0.1 µM | 65.6 ± 2.7 µM | 19.1 ± 1.6 µM | CSc1nc(Nc2cccc(F)c2)c2cnn(CC(Cl)c3ccc(F)cc3)c2n1 (stereo not shown) [Si93] | 16.9 ± 0.9 µM | 6.5 ± 0.3 µM | 13.8 ± 2 µM | 10.4 ± 0.5 µM | 15.6 ± 0.6 µM | 7.7 ± 0.4 µM | 11.8 ± 0.4 µM | 8.8 ± 0.3 µM | 56.8% | 14.6% | 28.6% | 42.4% | 25.2% | 22.1% | Cells in G1 phase (GammaA3 [10]): 76.1%; Cells in G2 phase (GammaA3 [10]): 16.6%; Cells in S phase (GammaA3 [10]): 7.2%; Cells in G1 phase (GammaD12 [11]): 39.5%; Cells in G2 phase (GammaD12 [11]): 14.7%; Cells in S phase (GammaD12 [11]): 45.8%; Cells in G1 phase (A549 [12]): 72.6%; Cells in G2 phase (A549 [12]): 5%; Cells in S phase (A549 [12]): 22.4%; Cells in G1 phase (CaCo2 [13]): 59.3%; Cells in G2 phase (CaCo2 [13]): 9.5%; Cells in S phase (CaCo2 [13]): 31.1%; Cells in G1 phase (HepG2 [14]): 55%; Cells in G2 phase (HepG2 [14]): 9.6%; Cells in S phase (HepG2 [14]): 35.4%
96 ± 35.1 µM | 10.2 ± 0.5 µM | 82.1 ± 5.3 µM | 7.6 ± 0.3 µM | 82.1 ± 5.3 µM | > 100 µM | CSc1nc(NCc2ccccc2)c2cnn(CC(Cl)c3ccc(Cl)cc3)c2n1 (stereo not shown) [Si70] | 68.5 ± 16.8 µM | 9.2 ± 0.3 µM | 31 ± 5.1 µM | 11 ± 0.3 µM | 40.7 ± 6.2 µM | 13.5 ± 1.1 µM | 21.6 ± 1.6 µM | 7.9 ± 3.4 µM | 63.3% | 10.1% | 26.6% | 56.6% | 25.7% | 17.7% | Cells in G1 phase (GammaA3 [10]): 89%; Cells in G2 phase (GammaA3 [10]): 8.2%; Cells in S phase (GammaA3 [10]): 2.8%; Decrease in the S-phase compared to the vehicle treatment (GammaA3 [10]; [17]): up to 91%; Increase in G0/G1 compared to the vehicle treatment (GammaA3 [10]; [17]): up to 92%; Cells in G1 phase (GammaD12 [11]): 43.7%; Cells in G2 phase (GammaD12 [11]): 7.7%; Cells in S phase (GammaD12 [11]): 48.7%; Cells in G1 phase (A549 [12]): 77.3%; Cells in G2 phase (A549 [12]): 4.1%; Cells in S phase (A549 [12]): 18.6%; Cells in G1 phase (CaCo2 [13]): 65.9%; Cells in G2 phase (CaCo2 [13]): 6.8%; Cells in S phase (CaCo2 [13]): 27.3%
22.7 ± 0.6 µM | 8.2 ± 0.5 µM | 40.3 ± 0.9 µM | 5.7 ± 0.4 µM | 40.3 ± 0.9 µM | 9.1 ± 1.7 µM | CSc1nc(NCc2ccccc2)c2cnn(CC(Cl)c3ccc(F)cc3)c2n1 (stereo not shown) [Si65] | 25.9 ± 4.3 µM | 8.6 ± 1.3 µM | 22.6 ± 1.9 µM | 10.6 ± 0.1 µM | 31.9 ± 1.6 µM | 9.9 ± 1.4 µM | 21 ± 1 µM | 7.1 ± 0.6 µM | 73.4% | 10.4% | 16.2% | 58.4% | 24.7% | 16.9% | Cells in G1 phase (GammaA3 [10]): 68%; Cells in G2 phase (GammaA3 [10]): 17.3%; Cells in S phase (GammaA3 [10]): 14.6%; Cells in G1 phase (GammaD12 [11]): 33%; Cells in G2 phase (GammaD12 [11]): 8.7%; Cells in S phase (GammaD12 [11]): 58.4%; Cells in G1 phase (A549 [12]): 67.2%; Cells in G2 phase (A549 [12]): 6.3%; Cells in S phase (A549 [12]): 26.6%; Cells in G1 phase (HepG2 [14]): 62.7%; Cells in G2 phase (HepG2 [14]): 8.5%; Cells in S phase (HepG2 [14]): 28.1%
